Source: patent US12145939B2, “Substituted [1,2,4]triazolo[4,3-a]pyrazines as ion channel modulators” (PRAXIS PRECISION MEDICINES, INC., priority 2019, dated 2024)

Biological target: T1, human NaV1.6 (hNaV1.6) (Homo sapiens, UniProt Q9UQD0)
T1 construct: expressed in transfected cells; host or cells: HEK-293
Test: Modulation of late sodium current (INaL) at hNaV1.6, PatchXpress electrophysiology
Assay type: cell-based
Details: HEK293, HEK-293 cells expressing recombinant human NaV 1.6, late current evoked by 300 nM ATX-II, read-out: NaV 1.6 Assay Data (percent inhibition of INaL at hNaV1.6)
Description: Functional characterization of exemplary compounds to modulate INaL expressed by the NaV1.6 voltage-gated sodium channel was accomplished using the PatchXpress™ high throughput electrophysiology platform (Molecular Devices, Sunnyvale, CA). HEK-293 cells expressing recombinant, human NaV1.6 (hNaV1.6) were grown in DMEM/high-glucose Dulbecco's modified, 10% FBS, 2 mM sodium pyruvate, 10 mM HEPES and 400 μg/mL G418. Cells were grown to 50%-80% confluency prior to harvesting. Trypsinized cells were washed, allowed to recover for 1 hour and then resuspended in extracellular recording solution at a concentration of 1×10^6 cells/ml. The onboard liquid handling facility of the PatchXpress was used for dispensing cells and applying test compounds. NaV late currents were evoked by the application of 300 nM ATX-II. INaL was evoked by depolarizing pulses to 0 mV for 200 ms from a non-inactivating holding potential (e.g., −120 mV) at a frequency of 0.1 Hz. INaL amplitude and stability were determined by analyzing the mean current amplitude over the final 20 ms of the test pulse. Following steady state block with exemplary compounds (e.g., as described herein), a Na+ free solution containing an impermeant cation (e.g., Choline or NDMG) was added to confirm the identity of the sodium current. Percent steady-state inhibition of INaL was calculated as: […], where INaL_compound and INaL_control represent INaL recorded in the presence or absence of compound, respectively.
Results from this assay relating to percent inhibition of INaL at hNaV1.6 (measured using a procedure similar to described above but using HEK-293 cells expressing recombinant, human NaV 1.6 (h NaV 1.6) at 1 μM are summarized in Table 1 below. In this table, “A” indicates inhibition of less than 30%; “B” indicates inhibition of between about 30% to about 70%; and “C” indicates inhibition of greater than 70%. “N/A” indicates not available.

T1 sequence (Q9UQD0 whole entry): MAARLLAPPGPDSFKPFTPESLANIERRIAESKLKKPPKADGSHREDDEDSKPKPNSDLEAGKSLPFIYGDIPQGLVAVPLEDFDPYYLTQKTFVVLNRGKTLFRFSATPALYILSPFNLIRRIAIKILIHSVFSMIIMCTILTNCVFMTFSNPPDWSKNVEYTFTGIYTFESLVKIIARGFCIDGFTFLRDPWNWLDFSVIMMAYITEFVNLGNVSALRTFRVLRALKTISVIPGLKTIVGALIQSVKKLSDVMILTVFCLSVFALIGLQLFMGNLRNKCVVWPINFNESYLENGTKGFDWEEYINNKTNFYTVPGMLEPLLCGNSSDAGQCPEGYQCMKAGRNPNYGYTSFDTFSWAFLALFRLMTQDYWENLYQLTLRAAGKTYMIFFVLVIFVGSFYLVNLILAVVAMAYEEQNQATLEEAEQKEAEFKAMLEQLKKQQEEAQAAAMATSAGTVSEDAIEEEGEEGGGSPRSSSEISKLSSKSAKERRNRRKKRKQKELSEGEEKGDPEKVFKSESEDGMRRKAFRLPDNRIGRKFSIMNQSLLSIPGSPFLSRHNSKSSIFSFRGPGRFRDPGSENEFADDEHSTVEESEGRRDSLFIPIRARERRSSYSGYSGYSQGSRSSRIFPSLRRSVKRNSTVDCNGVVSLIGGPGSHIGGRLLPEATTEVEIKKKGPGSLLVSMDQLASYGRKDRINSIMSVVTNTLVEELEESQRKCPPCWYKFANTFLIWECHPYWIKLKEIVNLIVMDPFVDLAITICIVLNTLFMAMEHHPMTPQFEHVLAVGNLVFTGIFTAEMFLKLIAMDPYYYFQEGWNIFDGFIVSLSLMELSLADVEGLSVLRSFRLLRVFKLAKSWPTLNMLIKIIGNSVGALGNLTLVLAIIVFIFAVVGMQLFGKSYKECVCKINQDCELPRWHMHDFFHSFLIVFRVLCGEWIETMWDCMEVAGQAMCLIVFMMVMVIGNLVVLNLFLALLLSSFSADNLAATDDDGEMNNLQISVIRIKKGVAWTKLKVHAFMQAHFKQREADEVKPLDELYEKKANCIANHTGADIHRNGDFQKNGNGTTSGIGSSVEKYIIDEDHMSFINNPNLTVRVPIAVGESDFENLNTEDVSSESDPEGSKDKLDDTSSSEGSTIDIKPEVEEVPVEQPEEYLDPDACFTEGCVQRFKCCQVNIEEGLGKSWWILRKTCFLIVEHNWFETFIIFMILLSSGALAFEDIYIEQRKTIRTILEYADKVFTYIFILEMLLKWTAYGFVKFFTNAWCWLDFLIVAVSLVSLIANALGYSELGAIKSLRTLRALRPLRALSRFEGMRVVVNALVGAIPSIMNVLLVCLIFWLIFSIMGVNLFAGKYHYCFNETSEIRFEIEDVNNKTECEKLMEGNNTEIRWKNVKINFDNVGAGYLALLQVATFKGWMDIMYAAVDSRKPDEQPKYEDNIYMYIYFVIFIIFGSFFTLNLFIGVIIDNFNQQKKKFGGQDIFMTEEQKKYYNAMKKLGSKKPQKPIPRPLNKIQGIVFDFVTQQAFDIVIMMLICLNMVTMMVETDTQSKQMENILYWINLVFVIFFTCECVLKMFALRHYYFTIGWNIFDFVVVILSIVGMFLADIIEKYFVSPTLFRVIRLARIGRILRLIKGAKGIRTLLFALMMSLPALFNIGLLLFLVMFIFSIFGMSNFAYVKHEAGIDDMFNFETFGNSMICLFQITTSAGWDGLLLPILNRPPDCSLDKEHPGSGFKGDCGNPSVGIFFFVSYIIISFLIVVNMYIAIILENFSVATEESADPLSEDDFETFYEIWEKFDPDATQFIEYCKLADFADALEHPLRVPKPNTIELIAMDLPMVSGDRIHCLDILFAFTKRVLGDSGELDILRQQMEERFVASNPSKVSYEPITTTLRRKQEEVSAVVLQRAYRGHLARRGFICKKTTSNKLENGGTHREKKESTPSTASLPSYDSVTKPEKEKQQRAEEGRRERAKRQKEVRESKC

Row | inhibition at 1 µM [%] | SMILES
1 | > 70 | C[C@@H](Oc1ccc(-c2cn3c(C(F)F)nnc3cn2)cn1)C(F)(F)F [Compound III-13, (R)-3-(difluoromethyl)-6-(6-((1,1,1-trifluoropropan-2-yl)oxy)pyridin-3-yl)-[1,2,4]triazolo[4,3-a]pyrazine]
2 | 30 to 70 | CCOC(C)(C)c1nnc2cnc(-c3ccc(OC(C)(C)C(F)(F)F)nc3)cn12 [Compound II-15, 3-(2-ethoxypropan-2-yl)-6-(6-((1,1,1-trifluoro-2-methylpropan-2-yl)oxy)pyridin-3-yl)-[1,2,4]triazolo[4,3-a]pyrazine]
3 | 30 to 70 | COC1(c2nnc3cnc(-c4cnc(O[C@@H](C)C(F)(F)F)c(F)c4)cn23)CC1 [Compound II-3, (S)-6-(5-fluoro-6-((1,1,1-trifluoropropan-2-yl)oxy)pyridin-3-yl)-3-(1-methoxycyclopropyl)-[1,2,4]triazolo[4,3-a]pyrazine]
4 | 30 to 70 | CO[C@H](C)c1nnc2cnc(-c3ccc(OC4(C(F)(F)F)CCC4)nc3)cn12 (single isomer, unassigned) [Compound I-6]
5 | 30 to 70 | COC(C)(C)c1nnc2cnc(-c3ccc(OC(C)(C)C(F)(F)F)nc3)cn12 [Compound II-14, 3-(1-methoxy-1-methyl-ethyl)-6-[6-(2,2,2-trifluoro-1,1-dimethyl-ethoxy)-3-pyridyl]-[1,2,4]triazolo[4,3-a]pyrazine]
6 | > 70 | FC(F)(F)c1nnc2cnc(-c3ccc(O[C@@H](C4CC4)C(F)(F)F)nc3)cn12 [Compound III-15, (S)-6-(6-(1-cyclopropyl-2,2,2-trifluoroethoxy)pyridin-3-yl)-3-(trifluoromethyl)-[1,2,4]triazolo[4,3-a]pyrazine]
7 | > 70 | COC(F)(F)c1nnc2cnc(-c3ccc([C@@H]4CC4(F)F)cc3C)cn12 (single isomer, unassigned) [Compound III-8]
8 | < 30 | CCOC(F)(F)c1nnc2cnc(-c3ccc([C@@H](C)OCC(F)(F)F)cc3)cn12 (single isomer, unassigned) [Compound III-19]
9 | < 30 | COC(C)(C)c1nnc2cnc(-c3ccc(OCC(F)(F)F)nc3)cn12 [Compound II-5, 3-(2-methoxypropan-2-yl)-6-(6-(2,2,2-trifluoroethoxy)pyridin-3-yl)-[1,2,4]triazolo[4,3-a]pyrazine]
10 | 30 to 70 | CCO[C@H](C)c1nnc2cnc(-c3cnc(OC(C)(C)C(F)(F)F)c(F)c3)cn12 [Compound I-13, (R)-3-(1-ethoxyethyl)-6-(5-fluoro-6-((1,1,1-trifluoro-2-methylpropan-2-yl)oxy)pyridin-3-yl)-[1,2,4]triazolo[4,3-a]pyrazine]
11 | 30 to 70 | CCO[C@@H](C)c1nnc2cnc(-c3ccc(OC(C)(C)C(F)(F)F)nc3)cn12 [Compound I-8, (S)-3-(1-ethoxyethyl)-6-(6-((1,1,1-trifluoro-2-methylpropan-2-yl)oxy)pyridin-3-yl)-[1,2,4]triazolo[4,3-a]pyrazine]
12 | 30 to 70 | CO[C@@H](C)c1nnc2cnc(-c3cnc(OC4(C(F)(F)F)CCC4)c(F)c3)cn12 (single isomer, unassigned) [Compound I-4]
13 | < 30 | COC1(c2nnc3cnc(-c4cnc(OCC(F)(F)F)c(F)c4)cn23)CC1 [Compound II-1, 6-(5-fluoro-6-(2,2,2-trifluoroethoxy)pyridin-3-yl)-3-(1-methoxycyclopropyl)-[1,2,4]triazolo[4,3-a]pyrazine]
14 | 30 to 70 | COC(C)(C)c1nnc2cnc(-c3cnc(O[C@H](C)C(F)(F)F)c(F)c3)cn12 [Compound II-8, (R)-6-(5-fluoro-6-((1,1,1-trifluoropropan-2-yl)oxy)pyridin-3-yl)-3-(2-methoxypropan-2-yl)-[1,2,4]triazolo[4,3-a]pyrazine]
15 | 30 to 70 | COCC(F)(F)Oc1ccc(-c2cn3c(C(F)(F)F)nnc3cn2)cc1 [Compound III-12, 6-(4-(1,1-difluoro-2-methoxyethoxy)phenyl)-3-(trifluoromethyl)-[1,2,4]triazolo[4,3-a]pyrazine]
16 | 30 to 70 | CCOC(C)(C)c1nnc2cnc(-c3cnc(OC(C)(C)C(F)(F)F)c(F)c3)cn12 [Compound II-11, 3-(2-ethoxypropan-2-yl)-6-(5-fluoro-6-((1,1,1-trifluoro-2-methylpropan-2-yl)oxy)pyridin-3-yl)-[1,2,4]triazolo[4,3-a]pyrazine]
17 | 30 to 70 | CO[C@H](C)c1nnc2cnc(-c3cnc(O[C@H](C4CC4)C(F)(F)F)c(F)c3)cn12 (single isomer, unassigned) [Compound I-15]
18 | < 30 | COC1(c2nnc3cnc(-c4cnc(O[C@H](C)C(F)(F)F)c(F)c4)cn23)CC1 [Compound II-2, (R)-6-(5-fluoro-6-((1,1,1-trifluoropropan-2-yl)oxy)pyridin-3-yl)-3-(1-methoxycyclopropyl)-[1,2,4]triazolo[4,3-a]pyrazine]
19 | 30 to 70 | CO[C@@H](C)c1nnc2cnc(-c3cnc(O[C@@H](C4CC4)C(F)(F)F)c(F)c3)cn12 (single isomer, unassigned) [Compound I-18]
20 | < 30 | CO[C@H](C)c1nnc2cnc(-c3ccc(O[C@@H](C4CC4)C(F)(F)F)nc3)cn12 (single isomer, unassigned) [Compound I-22]
21 | 30 to 70 | CO[C@H](C)c1nnc2cnc(-c3ccc(OC(C)(C)C(F)(F)F)nc3)cn12 (single isomer, unassigned) [Compound I-9]
22 | < 30 | COC(F)(F)c1nnc2cnc(-c3ccc([C@H](C)OCC(F)(F)F)cc3)cn12 (single isomer, unassigned) [Compound III-18]
23 | 30 to 70 | CCOC(F)(F)c1nnc2cnc(-c3ccc(COCC(F)(F)F)cc3)cn12 [Compound III-11, 3-(ethoxydifluoromethyl)-6-(4-((2,2,2-trifluoroethoxy)methyl)phenyl)-[1,2,4]triazolo[4,3-a]pyrazine]
24 | 30 to 70 | FC(F)(F)c1nnc2cnc(-c3ccc(O[C@H](C4CC4)C(F)(F)F)nc3)cn12 (single isomer, unassigned) [Compound III-14]
25 | 30 to 70 | CCOC(F)(F)c1nnc2cnc(-c3ccc([C@@H](C)OCC(F)(F)F)cc3C)cn12 (single isomer, unassigned) [Compound III-9]
26 | < 30 | COC(F)(F)c1nnc2cnc(-c3ccc([C@@H](C)OCC(F)(F)F)cc3)cn12 (single isomer, unassigned) [Compound III-17]
27 | 30 to 70 | CO[C@H](C)c1nnc2cnc(-c3cnc(OC4(C(F)(F)F)CCC4)c(F)c3)cn12 (single isomer, unassigned) [Compound I-3]
28 | 30 to 70 | CCOC(F)(F)c1nnc2cnc(-c3ccc([C@H](C)OCC(F)(F)F)cc3)cn12 (single isomer, unassigned) [Compound III-20]
29 | < 30 | COC(C)(C)c1nnc2cnc(-c3ccc(OC(C)C(F)(F)F)nc3)cn12 (racemic) [Compound II-6, 3-(1-methoxy-1-methyl-ethyl)-6-[6-[rac-(1R)-2,2,2-trifluoro-1-methyl-ethoxy]-3-pyridyl]-[1,2,4]triazolo[4,3-a]pyrazine]
30 | 30 to 70 | C[C@H](Oc1ccc(-c2cn3c(C(F)(F)Cl)nnc3cn2)cn1)C(F)(F)F [Compound II-7, (S)-3-(chlorodifluoromethyl)-6-(6-((1,1,1-trifluoropropan-2-yl)oxy)pyridin-3-yl)-[1,2,4]triazolo[4,3-a]pyrazine]

Row | SMILES | inhibition at 1 µM [%]
31 | CCO[C@@H](C)c1nnc2cnc(-c3ccc(OC4(C(F)(F)F)CCC4)nc3)cn12 [Compound I-11, (S)-3-(1-ethoxyethyl)-6-(6-(1-(trifluoromethyl)cyclobutoxy)pyridin-3-yl)-[1,2,4]triazolo[4,3-a]pyrazine] | 30 to 70
32 | COC(C)(C)c1nnc2cnc(-c3cnc(OC4(C(F)(F)F)CCC4)c(F)c3)cn12 [Compound II-12, 6-(5-fluoro-6-(1-(trifluoromethyl)cyclobutoxy)pyridin-3-yl)-3-(2-methoxypropan-2-yl)-[1,2,4]triazolo[4,3-a]pyrazine] | > 70
33 | CCO[C@H](C)c1nnc2cnc(-c3ccc(OC4(C(F)(F)F)CCC4)nc3)cn12 [Compound I-20, (R)-3-(1-ethoxyethyl)-6-(6-(1-(trifluoromethyl)cyclobutoxy)pyridin-3-yl)-[1,2,4]triazolo[4,3-a]pyrazine] | 30 to 70
34 | COC(C)(C)c1nnc2cnc(-c3ccc(OC4(C(F)(F)F)CCC4)nc3)cn12 [Compound II-13, 3-(1-methoxy-1-methyl-ethyl)-6-[6-[1-(trifluoromethyl)cyclobutoxy]-3-pyridyl]-[1,2,4]triazolo[4,3-a]pyrazine] | 30 to 70
